Source: patent US9593110B2, “Neprilysin inhibitors” (Theravence Biopharma R&D IP, LLC, priority 2014, dated 2017)

Target: human NEP (Homo sapiens (Human), UniProt P08473)
Assay: In vitro enzyme inhibition assay at human NEP
Settings: recombinant human NEP, fluorogenic peptide substrate, 37° C.; for Ki: pKi
Method: The inhibitory activities of compounds at human and rat neprilysin (EC 3.4.24.11; NEP) and human angiotensin converting enzyme (ACE) were determined using in vitro assays as described below.
The assays were performed in 384-well white opaque plates at 37° C. using the fluorogenic peptide substrates at a concentration of 10 μM in Assay Buffer (NEP: 50 mM HEPES, pH 7.5, 100 mM NaCl, 0.01% polyethylene glycol sorbitan monolaurate (Tween-20), 10 μM ZnSO4; ACE: 50 mM HEPES, pH 7.5, 100 mM NaCl, 0.01% Tween-20, 1 μM ZnSO4).
Test compounds were assayed over the range of concentrations from 10 μM to 20 pM. Test compounds were added to the enzymes and incubated for 30 minute at 37° C. prior to initiating the reaction by the addition of substrate.
Plates were read on a fluorometer with excitation and emission wavelengths set to 320 nm and 405 nm, respectively Inhibition constants were obtained by nonlinear regression of the data using the equation (GraphPad Software, Inc., San Diego, Calif.): v=v0/[1+(I/K′)] where v is the reaction rate, v0 is the uninhibited reaction rate, I is the inhibitor concentration and K′ is the apparent inhibition constant.

Chain of human NEP (P08473 52-750): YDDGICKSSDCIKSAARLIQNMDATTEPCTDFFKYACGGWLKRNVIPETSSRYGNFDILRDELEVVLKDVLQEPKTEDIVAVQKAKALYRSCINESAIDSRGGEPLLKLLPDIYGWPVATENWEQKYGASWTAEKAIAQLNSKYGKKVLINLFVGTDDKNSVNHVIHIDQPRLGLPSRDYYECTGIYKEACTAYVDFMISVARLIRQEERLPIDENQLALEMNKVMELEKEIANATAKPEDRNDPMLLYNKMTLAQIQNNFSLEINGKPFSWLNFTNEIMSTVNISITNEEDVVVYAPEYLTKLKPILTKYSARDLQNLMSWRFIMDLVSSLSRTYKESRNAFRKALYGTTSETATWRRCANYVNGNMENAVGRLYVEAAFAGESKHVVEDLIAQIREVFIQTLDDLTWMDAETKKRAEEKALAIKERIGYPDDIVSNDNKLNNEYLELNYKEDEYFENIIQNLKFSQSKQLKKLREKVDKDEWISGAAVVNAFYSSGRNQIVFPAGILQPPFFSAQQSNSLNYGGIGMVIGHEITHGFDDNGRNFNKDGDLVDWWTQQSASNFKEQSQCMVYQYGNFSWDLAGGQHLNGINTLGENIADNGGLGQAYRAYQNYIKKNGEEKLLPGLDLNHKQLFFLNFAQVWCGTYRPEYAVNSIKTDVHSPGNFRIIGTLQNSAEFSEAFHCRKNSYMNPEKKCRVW

| SMILES | Ki [nM] | pKi |
| --- | --- | --- |
| CN(C)C[C@H](C[C@@H](Cc1ccc(-c2cc(Cl)ccc2F)cc1)NC(=O)c1cnn[nH]1)C(=O)O [Example 75, (2S,4S)-5-(5′-Chloro-2′-fluorobiphenyl-4-yl)-2-dimethylaminomethyl-4-[(3H-[1,2,3]triazole-4-carbonyl)amino]pentanoic Acid] | 1.26 to 3.16 |  |
| COC[C@H](C[C@@H](Cc1ccc(-c2cccc(Br)c2)cc1)NC(=O)c1cnn[nH]1)C(=O)O [Example 80, (2S,4S)-5-(3′-Bromobiphenyl-4-yl)-2-methoxymethyl-4-[(3H-[1,2,3]triazole-4-carbonyl)amino]pentanoic Acid] |  | ≧9.0 |
| O=C(N[C@H](Cc1ccc(-c2cc(Cl)ccc2F)cc1)C[C@@H](CNCCF)C(=O)O)c1cnn[nH]1 [Example 81, (2S,4S)-5-(5′-Chloro-2′-fluorobiphenyl-4-yl)-2-[(2-fluoroethylamino)methyl]-4-[(3H-[1,2,3]triazole-4-carbonyl)amino]pentanoic Acid] | 3.16 to 10 |  |
| O=C(N[C@H](Cc1ccc(-c2cc(Cl)ccc2F)cc1)C[C@@H](CNCC(F)F)C(=O)O)c1cnn[nH]1 [Example 82a, (2S,4S)-5-(5′-Chloro-2′-fluorobiphenyl-4-yl)-2-[(2,2-difluoroethylamino)methyl]-4-[(3H-[1,2,3]triazole-4-carbonyl)amino]pentanoic Acid] | ≤ 1 |  |
| O=C(N[C@H](Cc1ccc(-c2cc(Cl)ccc2F)cc1)C[C@@H](CN1CC(O)C1)C(=O)O)c1cnn[nH]1 [Example 83b, (2S,4S)-5-(5′-Chloro-2′-fluorobiphenyl-4-yl)-2-(3-hydroxyazetidin-1-ylmethyl)-4-[(3H-[1,2,3]triazole-4-carbonyl)amino]pentanoic Acid] | ≤ 1 |  |
| O=C(N[C@H](Cc1ccc(-c2cc(Cl)ccc2F)cc1)C[C@@H](CN1CCC1)C(=O)O)c1cnn[nH]1 [Example 84b, (2S,4S)-2-Azetidin-1-ylmethyl-5-(5′-chloro-2′-fluorobiphenyl-4-yl)-4-[(3H-[1,2,3]triazole-4-carbonyl)amino]pentanoic Acid] | ≤ 1 |  |
| COCCN(C)C[C@H](C[C@@H](Cc1ccc(-c2cc(Cl)ccc2F)cc1)NC(=O)c1cnn[nH]1)C(=O)O [Example 85a, (2S,4S)-5-(5′-Chloro-2′-fluorobiphenyl-4-yl)-2-{[(2-methoxyethyl)methylamino]methyl}-4-[(3H-[1,2,3]triazole-4-carbonyl)amino]pentanoic Acid] | ≤ 1 |  |
| O=C(N[C@H](Cc1ccc(-c2cc(Cl)ccc2F)cc1)C[C@@H](CNCCCO)C(=O)O)c1cnn[nH]1 [Example 87b, (2S,4S)-5-(5′-Chloro-2′-fluorobiphenyl-4-yl)-2-[(3-hydroxypropylamino)methyl]-4-[(3H-[1,2,3]triazole-4-carbonyl)amino]pentanoic Acid] | ≤ 1 |  |
| N#CC1CN(C[C@H](C[C@@H](Cc2ccc(-c3cc(Cl)ccc3F)cc2)NC(=O)c2cnn[nH]2)C(=O)O)C1 [Example 88b, (2S,4S)-5-(5′-Chloro-2′-fluorobiphenyl-4-yl)-2-(3-cyanoazetidin-1-ylmethyl)-4-[(3H-[1,2,3]triazole-4-carbonyl)amino]pentanoic Acid] | ≤ 1 |  |
| CC1(C)CN(C[C@H](C[C@@H](Cc2ccc(-c3cc(Cl)ccc3F)cc2)NC(=O)c2cnn[nH]2)C(=O)O)C1 [Example 89b, (2S,4S)-5-(5′-Chloro-2′-fluorobiphenyl-4-yl)-2-(3,3-dimethylazetidin-1-ylmethyl)-4-[(3H-[1,2,3]triazole-4-carbonyl)amino]pentanoic Acid] | ≤ 1 |  |
| O=C(N[C@H](Cc1ccc(-c2cc(Cl)ccc2F)cc1)C[C@@H](CN1CC(F)(F)C1)C(=O)O)c1cnn[nH]1 [Example 90b, (2S,4S)-5-(5′-Chloro-2′-fluorobiphenyl-4-yl)-2-(3,3-difluoroazetidin-1-ylmethyl)-4-[(3H-[1,2,3]triazole-4-carbonyl)amino]pentanoic Acid] | ≤ 1 |  |
| O=C(N[C@H](Cc1ccc(-c2cc(Cl)ccc2F)cc1)C[C@@H](CN1CC(F)C1)C(=O)O)c1cnn[nH]1 [Example 91b, (2S,4S)-5-(5′-Chloro-2′-fluorobiphenyl-4-yl)-2-(3-fluoroazetidin-1-ylmethyl)-4-[(3H-[1,2,3]triazole-4-carbonyl)amino]pentanoic Acid] | ≤ 1 |  |
| O=C(N[C@H](Cc1ccc(-c2cc(Cl)ccc2F)cc1)C[C@@H](CN1CC(CO)(CO)C1)C(=O)O)c1cnn[nH]1 [Example 92b, (2S,4S)-2-(3,3-Bis-hydroxymethylazetidin-1-ylmethyl)-5-(5′-chloro-2′-fluorobiphenyl-4-yl)-4-[(3H-[1,2,3]triazole-4-carbonyl)amino]pentanoic Acid] | ≤ 1 |  |
| O=C(N[C@H](Cc1ccc(-c2cc(Cl)ccc2F)cc1)C[C@@H](CN1CC(CO)C1)C(=O)O)c1cnn[nH]1 [Example 93b, (2S,4S)-5-(5′-Chloro-2′-fluorobiphenyl-4-yl)-2-(3-hydroxymethyl-azetidin-1-ylmethyl)-4-[(3H-[1,2,3]triazole-4-carbonyl)amino]pentanoic Acid] | ≤ 1 |  |
| O=C(N[C@H](Cc1ccc(-c2cc(Cl)ccc2F)cc1)C[C@@H](CN1CC[C@@H]1CO)C(=O)O)c1cnn[nH]1 [Example 94b] | ≤ 1 |  |
| O=C(N[C@H](Cc1ccc(-c2cc(Cl)ccc2F)cc1)C[C@@H](CN1CC[C@H]1CO)C(=O)O)c1cnn[nH]1 [Example 95b, (2S,4S)-5-(5′-Chloro-2′-fluorobiphenyl-4-yl)-2-((S)-2-hydroxymethyl-azetidin-1-ylmethyl)-4-[(3H-[1,2,3]triazole-4-carbonyl)amino]pentanoic Acid] | ≤ 1 |  |
| NC(=O)C1CN(C[C@H](C[C@@H](Cc2ccc(-c3cc(Cl)ccc3F)cc2)NC(=O)c2cnn[nH]2)C(=O)O)C1 [Example 96b, (2S,4S)-2-(3-Carbamoylazetidin-1-ylmethyl)-5-(5′-chloro-2′-fluorobiphenyl-4-yl)-4-[(3H-[1,2,3]triazole-4-carbonyl)amino]pentanoic Acid] |  | ≧9.0 |
| COCCCN[C@H](C[C@@H](Cc1ccc(-c2cc(Cl)ccc2F)cc1)NC(=O)c1c[nH]nn1)C(=O)O [Example 97a] | ≤ 1 |  |
| COCCN[C@H](C[C@@H](Cc1ccc(-c2cc(Cl)ccc2F)cc1)NC(=O)c1c[nH]nn1)C(=O)O [Example 98a, (2R,4R)-5-(5′-Chloro-2′-fluorobiphenyl-4-yl)-2-(2-methoxyethylamino)-4-[(1H-[1,2,3]triazole-4-carbonyl)amino]pentanoic Acid] | ≤ 1 |  |
| CN(C)CCOC[C@H](C[C@@H](Cc1ccc(-c2cc(Cl)ccc2F)cc1)NC(=O)c1c[nH]nn1)C(=O)O [Example 100, (2S,4S)-5-(5′-Chloro-2′-fluorobiphenyl-4-yl)-2-(2-dimethylamino-ethoxymethyl)-4-[(1H-[1,2,3]triazole-4-carbonyl)amino]pentanoic Acid] | ≤ 1 |  |
| CC1(O)CN(C[C@H](C[C@@H](Cc2ccc(-c3cc(Cl)ccc3F)cc2)NC(=O)c2c[nH]nn2)C(=O)O)C1 [Example 101b, (2S,4S)-5-(5′-Chloro-2′-fluorobiphenyl-4-yl)-2-(3-hydroxy-3-methylazetidin-1-ylmethyl)-4-[(1H-[1,2,3]triazole-4-carbonyl)amino]pentanoic Acid] | ≤ 1 |  |
| CC1(O)CN(C[C@@H](C[C@@H](Cc2ccc(-c3cc(Cl)ccc3F)cc2)NC(=O)c2c[nH]nn2)C(=O)O)C1 [Example 101c, (2R,4S)-5-(5′-Chloro-2′-fluorobiphenyl-4-yl)-2-(3-hydroxy-3-methylazetidin-1-ylmethyl)-4-[(1H-[1,2,3]triazole-4-carbonyl)amino]pentanoic Acid] | 1.26 to 3.16 |  |
| COC1CN(C[C@H](C[C@@H](Cc2ccc(-c3cc(Cl)ccc3F)cc2)NC(=O)c2c[nH]nn2)C(=O)O)C1 [Example 102b, (2S,4S)-5-(5′-Chloro-2′-fluorobiphenyl-4-yl)-2-(3-methoxyazetidin-1-ylmethyl)-4-[(1H-[1,2,3]triazole-4-carbonyl)amino]pentanoic Acid] | ≤ 1 |  |
| COC1CN(C[C@@H](C[C@@H](Cc2ccc(-c3cc(Cl)ccc3F)cc2)NC(=O)c2c[nH]nn2)C(=O)O)C1 [Example 102c, (2R,4S)-5-(5′-Chloro-2′-fluorobiphenyl-4-yl)-2-(3-methoxyazetidin-1-ylmethyl)-4-[(1H-[1,2,3]triazole-4-carbonyl)amino]pentanoic Acid] | ≤ 1 |  |
| COC[C@H]1CCN1C[C@H](C[C@@H](Cc1ccc(-c2cc(Cl)ccc2F)cc1)NC(=O)c1c[nH]nn1)C(=O)O [Example 103b, (2S,4S)-5-(5′-Chloro-2′-fluorobiphenyl-4-yl)-2-((R)-2-methoxymethylazetidin-1-ylmethyl)-4-[(3H-[1,2,3]triazole-4-carbonyl)amino]pentanoic Acid] | ≤ 1 |  |
| COC[C@@H]1CCN1C[C@H](C[C@@H](Cc1ccc(-c2cc(Cl)ccc2F)cc1)NC(=O)c1c[nH]nn1)C(=O)O [Example 103d, (2S,4S)-5-(5′-Chloro-2′-fluorobiphenyl-4-yl)-2-((S)-2-methoxymethylazetidin-1-ylmethyl)-4-[(3H-[1,2,3]triazole-4-carbonyl)amino]pentanoic Acid] | ≤ 1 |  |
| CC(C)(N)[C@H](C[C@@H](Cc1ccc(-c2cc(Cl)ccc2F)cc1)NC(=O)c1cnn[nH]1)C(=O)O [Example 104, (2S,4S)-2-(1-Amino-1-methylethyl)-5-(5′-chloro-2′-fluorobiphenyl-4-yl)-4-[(3H-[1,2,3]triazole-4-carbonyl)amino]pentanoic Acid] |  | ≧9.0 |
| O=C(N[C@H](Cc1ccc(-c2cc(Cl)ccc2F)cc1)C[C@@H](CN1CC(CCO)C1)C(=O)O)c1c[nH]nn1 [Example 105, (2S,4S)-5-(5′-Chloro-2′-fluorobiphenyl-4-yl)-2-[3-(2-hydroxyethyl)azetidin-1-ylmethyl]-4-[(1H-[1,2,3]triazole-4-carbonyl)amino]pentanoic Acid] | ≤ 1 |  |
| CN(CCO)C[C@H](C[C@@H](Cc1ccc(-c2cc(Cl)ccc2F)cc1)NC(=O)c1c[nH]nn1)C(=O)O [Example 106, (2S,4S)-5-(5′-Chloro-2′-fluorobiphenyl-4-yl)-2-{[(2-hydroxyethyl)-methylamino]methyl}-4-[(1H-[1,2,3]triazole-4-carbonyl)amino]pentanoic Acid] | 1.26 to 3.16 |  |
